# Where two headings read alike, the source gives them in different places.
# Key:
# G-401 xenograft = assay: Drug efficacy evaluation by intravenous administration using G-401 xenograft mice model; type: in vivo; conditions: G-401 xenograft model
# Experimental: G-401 cells (ATCC) were intradermally transplanted into 4-7-week-old BALB/cAnNCrj-nu/nu mice (CAnN.Cg-Foxnl/CrlCrlj, Jackson Laboratory Japan) at 5×10^5 cells/mouse. After confirming the engraftment of G-401 cells 10-40 days after transplantation, the test compound suspended in a solvent such as 10 mmol/L glycine buffer solution (pH 2.0) was administered via the tail vein at least once a week at a dose of 0.015-20 mg/kg. The tumor volume was measured over time from the start of administration, and the effect of tumor volume reduction by administration of the test compound was evaluated. The tumor volume can be calculated from the following equation using the minor axis and major axis of the tumor measured with an electronic caliper (Mitutoyo).
# A control administration group administered with only a solvent such as 10 mmol/L glycine buffer solution (pH 2.0) and a test compound administration group were compared, and the antitumor effect was evaluated by calculating T/C from the following equation.
# Solubility test = type: physicochemical; conditions: for solubility: aqueous buffer, thermodynamic from solid
# Experimental: The solubility was measured for Examples 7, 10, 20, 23, 24, and 30 to 34, Comparative Example 1, and Comparative Example 2. The test compound was added to 10 mmol/L glycine buffer (pH 2.0) and 10 mmol/L citrate buffer (pH 3.0), and the mixture was stored in a thermostatic chamber at 5° C. After standing overnight, the mixture was filtered through a membrane filter, and the concentration of the filtrate was measured by HPLC.
# The HPLC measurement conditions are as follows.
# HPLC conditions • Column: Acquity UPLC BEH C18, 1.7 μm, 50×2.1 mm • Column temperature: 40° C. • Mobile phase: A: 0.1% trifluoroacetic acid-containing water • B: acetonitrile • A/B (min): 95/5 (0)→0/100 (3.5)→0/100 (4)→95/5 (4.01)→95/5 (5) • Flow rate: 0.8 mL/min • Detection: UV visible detector, measurement wavelength 254 nm • Injection volume: 5 μL or • Column: Acquity UPLC BEH C18, 1.7 μm, 50×2.1 mm • Column temperature: 40° C. • Mobile phase: A: 0.1% trifluoroacetic acid-containing water • B: acetonitrile • A/B (min): • 80/20 (0)→40/60 (3.0)→0/100 (3.5)→0/100 (4)→80/20 (4.01)→80/20 (5) • Flow rate: 0.8 mL/min • Detection: UV visible detector, measurement wavelength 254 nm • Injection volume: 2 μL or • Column: Acquity UPLC BEH C18, 1.7 μm, 50×2.1 mm • Column temperature: 40° C. • Mobile phase: A: 0.1% trifluoroacetic acid-containing water • B: acetonitrile • A/B (min): • 80/20 (0)→40/60 (3.0)→0/100 (3.5)→0/100 (4)→100/0 (4.01)→100/0 (5) • Flow rate: 0.8 mL/min • Detection: UV visible detector, measurement wavelength 254 nm • Injection volume: 3 μL
# hDAT = hDAT (Homo sapiens (Human), UniProt Q01959); assay: Dopamine receptor inhibitory activity evaluation (binding assay, CHO-S/hDAT membranes); conditions: for Inhibitory effect on dopamine receptors (in words): off-target
# Chain of hDAT (Q01959 whole entry): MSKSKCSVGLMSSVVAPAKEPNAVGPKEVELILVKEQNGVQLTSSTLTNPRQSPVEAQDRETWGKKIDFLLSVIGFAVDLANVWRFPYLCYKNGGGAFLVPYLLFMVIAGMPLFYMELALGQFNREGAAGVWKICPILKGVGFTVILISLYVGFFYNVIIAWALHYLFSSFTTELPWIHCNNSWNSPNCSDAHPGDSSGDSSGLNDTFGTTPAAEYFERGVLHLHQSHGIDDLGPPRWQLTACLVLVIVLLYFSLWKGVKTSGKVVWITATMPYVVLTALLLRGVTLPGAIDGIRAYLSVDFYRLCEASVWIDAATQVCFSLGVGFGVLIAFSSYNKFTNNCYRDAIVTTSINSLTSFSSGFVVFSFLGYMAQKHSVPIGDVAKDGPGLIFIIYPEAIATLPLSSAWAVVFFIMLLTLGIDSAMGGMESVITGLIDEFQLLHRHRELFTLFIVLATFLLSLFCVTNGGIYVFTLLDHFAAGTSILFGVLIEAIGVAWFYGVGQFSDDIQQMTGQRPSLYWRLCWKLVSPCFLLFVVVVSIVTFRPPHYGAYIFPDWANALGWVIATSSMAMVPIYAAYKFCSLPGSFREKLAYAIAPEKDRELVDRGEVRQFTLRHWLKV
# Experimental: The binding evaluation assay was outsourced to Eurofins. Specifically, CHO—S/hDAT cells were homogenized in an incubation buffer consisting of 50 mmol/L Tris-HCl, pH 7.4, 100 mmol/L NaCl, 1 μmol/L Leupeptin, and 10 μmol/L PMSF. The membrane pellet obtained by centrifugation was resuspended in the incubation buffer to prepare a membrane preparation. The test compound (1-10 μmol/L DMSO solution), the membrane preparation, and 0.15 nmol/L […] were mixed and incubated at 4° C. for 180 minutes. The cell membrane-[^125I]RTI-55 complex was bound to a GF/B filter mat by vacuum filtration and washed with 50 mmol/L Tris-HCl, pH 7.4. The effect on the receptor was assessed by measuring radioactivity using a scintillation counter.
# hSERT = hSERT (Homo sapiens (Human), UniProt P31645); assay: Serotonin receptor inhibitory activity evaluation (binding assay, HEK293/hSERT membranes); conditions: for Inhibitory effect on serotonin receptors (in words): off-target
# Chain of hSERT (P31645 whole entry): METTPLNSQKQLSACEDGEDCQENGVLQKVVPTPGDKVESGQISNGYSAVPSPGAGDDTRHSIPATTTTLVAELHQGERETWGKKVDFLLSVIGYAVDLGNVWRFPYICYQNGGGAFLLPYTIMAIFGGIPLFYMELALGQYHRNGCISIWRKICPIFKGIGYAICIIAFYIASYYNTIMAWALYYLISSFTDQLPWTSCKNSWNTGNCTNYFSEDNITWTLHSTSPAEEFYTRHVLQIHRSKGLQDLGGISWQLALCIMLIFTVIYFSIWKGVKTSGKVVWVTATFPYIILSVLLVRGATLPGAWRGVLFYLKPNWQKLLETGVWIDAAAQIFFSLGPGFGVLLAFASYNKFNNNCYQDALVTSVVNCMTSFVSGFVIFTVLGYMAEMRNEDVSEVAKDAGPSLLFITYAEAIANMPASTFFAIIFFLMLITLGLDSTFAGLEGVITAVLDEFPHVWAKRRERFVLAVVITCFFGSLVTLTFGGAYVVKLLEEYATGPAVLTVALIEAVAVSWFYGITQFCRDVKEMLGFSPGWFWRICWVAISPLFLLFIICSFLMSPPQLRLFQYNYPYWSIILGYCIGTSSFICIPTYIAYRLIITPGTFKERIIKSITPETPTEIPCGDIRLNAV
# Experimental: The binding evaluation assay was outsourced to Eurofins. Specifically, HEK293/hSERT cells were homogenized in a buffer consisting of 100 mmol/L NaCl, 1 μmol/L Leupeptin, 10 μmol/L PMSF, and 50 mmol/L Tris-HCl (pH7.4). The membrane pellet obtained by centrifugation was resuspended in an incubation buffer consisting of 50 mmol/L Tris-HCl (pH 7.4), 120 mmol/L NaCl, and 5 mmol/L KCl to prepare a membrane preparation. The test compound (1-10 μmol/L DMSO solution), the membrane preparation, and 0.4 nmol/L [^3H]Paroxetin were mixed and incubated at 25° C. for 60 minutes. The cell membrane-[^3H]Paroxetin complex was bound to a GF/B filter mat by vacuum filtration and washed with 50 mmol/L Tris-HCl (pH 7.4). The effect on the receptor was assessed by measuring radioactivity using a scintillation counter.
# recombinant p300 = recombinant p300 (Homo sapiens (Human), UniProt Q09472); assay: HAT activity inhibition experiment (SensoLyte HAT(p300) Assay Kit); type: biochemical; conditions: recombinant p300, acetyl CoA, histone H3 peptide
# Chain of recombinant p300 (Q09472 whole entry): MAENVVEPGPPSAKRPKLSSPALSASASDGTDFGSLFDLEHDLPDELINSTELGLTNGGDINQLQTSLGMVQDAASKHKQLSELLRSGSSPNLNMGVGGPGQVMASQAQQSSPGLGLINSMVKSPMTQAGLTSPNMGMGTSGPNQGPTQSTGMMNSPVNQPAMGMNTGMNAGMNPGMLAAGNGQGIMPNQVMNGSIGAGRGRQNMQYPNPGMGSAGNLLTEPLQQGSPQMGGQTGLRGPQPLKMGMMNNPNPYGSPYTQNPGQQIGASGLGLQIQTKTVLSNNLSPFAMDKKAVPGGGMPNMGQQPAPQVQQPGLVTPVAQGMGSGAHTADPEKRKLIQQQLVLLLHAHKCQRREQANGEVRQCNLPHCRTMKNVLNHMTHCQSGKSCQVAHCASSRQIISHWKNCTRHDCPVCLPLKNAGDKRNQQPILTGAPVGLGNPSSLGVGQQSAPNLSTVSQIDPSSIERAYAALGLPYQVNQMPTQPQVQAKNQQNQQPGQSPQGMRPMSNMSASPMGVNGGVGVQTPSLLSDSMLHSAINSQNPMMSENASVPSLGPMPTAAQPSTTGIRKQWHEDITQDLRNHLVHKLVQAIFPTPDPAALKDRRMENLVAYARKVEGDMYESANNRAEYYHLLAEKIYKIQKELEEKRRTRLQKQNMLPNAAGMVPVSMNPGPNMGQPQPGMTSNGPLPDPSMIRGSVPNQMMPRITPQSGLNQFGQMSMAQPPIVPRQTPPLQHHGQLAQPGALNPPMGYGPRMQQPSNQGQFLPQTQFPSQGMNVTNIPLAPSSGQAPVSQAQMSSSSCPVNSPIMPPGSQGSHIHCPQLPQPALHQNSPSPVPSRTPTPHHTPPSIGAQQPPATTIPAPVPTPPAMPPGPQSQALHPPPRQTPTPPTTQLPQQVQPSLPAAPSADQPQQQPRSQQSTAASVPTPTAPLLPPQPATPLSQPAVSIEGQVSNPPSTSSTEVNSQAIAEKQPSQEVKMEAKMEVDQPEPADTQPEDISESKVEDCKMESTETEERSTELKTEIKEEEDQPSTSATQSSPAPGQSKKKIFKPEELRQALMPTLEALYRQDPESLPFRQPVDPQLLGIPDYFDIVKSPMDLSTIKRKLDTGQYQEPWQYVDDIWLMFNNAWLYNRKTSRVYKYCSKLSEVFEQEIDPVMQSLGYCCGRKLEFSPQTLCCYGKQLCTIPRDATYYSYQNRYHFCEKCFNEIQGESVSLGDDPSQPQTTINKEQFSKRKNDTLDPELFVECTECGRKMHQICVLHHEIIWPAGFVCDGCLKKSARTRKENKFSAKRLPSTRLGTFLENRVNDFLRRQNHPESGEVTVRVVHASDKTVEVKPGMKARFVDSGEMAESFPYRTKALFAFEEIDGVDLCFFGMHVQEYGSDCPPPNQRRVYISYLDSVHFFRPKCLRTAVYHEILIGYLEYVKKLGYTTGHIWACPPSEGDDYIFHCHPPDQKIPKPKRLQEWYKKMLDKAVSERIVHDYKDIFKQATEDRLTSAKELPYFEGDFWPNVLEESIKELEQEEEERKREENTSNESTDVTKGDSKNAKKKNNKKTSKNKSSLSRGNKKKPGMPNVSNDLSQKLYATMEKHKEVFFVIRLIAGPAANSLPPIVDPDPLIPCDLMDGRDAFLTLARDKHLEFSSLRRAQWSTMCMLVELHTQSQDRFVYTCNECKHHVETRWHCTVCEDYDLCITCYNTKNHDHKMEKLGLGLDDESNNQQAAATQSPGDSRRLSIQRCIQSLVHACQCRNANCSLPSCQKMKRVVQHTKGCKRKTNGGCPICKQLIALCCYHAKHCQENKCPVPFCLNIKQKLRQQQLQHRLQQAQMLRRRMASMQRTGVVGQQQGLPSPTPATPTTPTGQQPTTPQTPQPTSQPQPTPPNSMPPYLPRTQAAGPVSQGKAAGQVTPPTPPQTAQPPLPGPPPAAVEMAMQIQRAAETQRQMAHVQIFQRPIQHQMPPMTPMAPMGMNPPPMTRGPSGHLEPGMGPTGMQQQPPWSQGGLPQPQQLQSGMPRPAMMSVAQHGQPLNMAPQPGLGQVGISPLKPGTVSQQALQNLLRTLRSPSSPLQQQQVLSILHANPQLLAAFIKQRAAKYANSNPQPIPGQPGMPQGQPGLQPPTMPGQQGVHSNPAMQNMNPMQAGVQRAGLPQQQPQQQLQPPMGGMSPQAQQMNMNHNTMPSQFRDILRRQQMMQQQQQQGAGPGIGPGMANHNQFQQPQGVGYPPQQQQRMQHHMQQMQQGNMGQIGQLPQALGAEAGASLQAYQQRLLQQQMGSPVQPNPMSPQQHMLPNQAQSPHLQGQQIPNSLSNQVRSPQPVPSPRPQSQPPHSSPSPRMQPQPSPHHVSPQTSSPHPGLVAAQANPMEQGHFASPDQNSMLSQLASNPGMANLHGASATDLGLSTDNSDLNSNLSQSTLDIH
# Experimental: The HAT activity inhibitory ability of HAT inhibitors was evaluated using SensoLyte HAT(p300) Assay Kit (ANASPEC, AS-72172). Specifically, 7.5 μL of the compound of Examples […] diluted with assay buffer was added to 7.5 μL of recombinant p300 solution diluted 10 times with assay buffer, and the mixture was incubated at room temperature for 10 minutes. 7.5 μL of acetyl CoA solution diluted 10 times with assay buffer and 15 μL of histone H3 peptide diluted 10 times with assay buffer were added thereto, and the mixture was incubated at 37° C. for 30 minutes. 37.5 μL of Stop Solution was added to stop the reaction. 75 μL of p300 Developer solution diluted 50 times with assay buffer was added, and the mixture was incubated at room temperature for 30 minutes under light-shielded conditions. The fluorescence at 513 nm when irradiated with 389 nm excitation light was measured using a multiplate reader.
# [1] = Pharmacokinetic study in mice; type: in vivo; conditions: for BA: oral 10 mg/kg vs intravenous 1 mg/kg
# Experimental: The test compound was administered to 7-week-old female BALE/c (BALB/cAnN CrlCrlj) mice intravenously (dosage: 1 mg/kg) in a 50% PEG solution (0.01 mol/L HCl) or orally (dosage: 10 mg/kg) in a 0.5% methylcellulose aqueous solution, and blood was collected at the following times: • Intravenous administration: 5 min, 15 min, 30 min, 1 hr, 2 hr, 4 hr, 6 hr, and 24 hr after administration • Oral administration: 15 min, 30 min, 1 hr, 2 hr, 4 hr, 6 hr, and 24 hr after administration
# The collected blood was centrifuged at 3000 rpm×10 min using a refrigerated centrifuge set at 4° C., and the obtained plasma was measured by LC-MS. A calibration curve was prepared from the value (peak ratio) obtained by dividing the peak area of the test substance by the peak area of the internal standard substance in MS and the concentration of the plasma calibration curve sample. The concentration in the sample was calculated from the peak ratio and the calibration curve of each sample.
# G-401 cells = assay: Cell proliferation inhibition experiment using G-401 cells; type: cell-based
# Experimental: G-401 cells (derived from malignant rhabdoid tumor) were obtained from the American Type Culture Collection (ATCC). G-401 cells were cultured in McCoy's 5A medium containing 10% fetal bovine serum and 1% penicillin/streptomycin under conditions of 37° C. and 5% CO2.
# 500 cells per well were seeded in a 384-well plate. One day after seeding, Examples 1 to 35 were added so that the final concentration of DMSO was 0.1%, and the cells were cultured for 3 days. After the culture was completed, the cell viability was measured using CellTiter-Glo Luminescent Cell Viability Assay (Promega, G7570).
smiles,measurement,setting,value
"CNC(=O)Cn1cc(-c2ccc3c(c2)[C@H](F)C[C@]32NC(=O)N(CC(=O)N(Cc3ccc(F)cc3)[C@@H](C)C(F)(F)F)C2=O)cn1 [Comparative Example 1, reference compound]","Antitumor effect, intravenous administration (in words)",G-401 xenograft,no antitumor effect
"CNC(=O)Nc1ccc2c(c1)CC[C@@]21OC(=O)N(CC(=O)N2[C@@H](C)CC[C@H]2c2cc(F)c(F)c(F)c2)C1=O [Comparative Example 2, reference compound]",Solubility in pH 3.0 buffer,"Solubility test; 10 mmol/L citrate buffer (pH 3.0), 5° C., overnight",0.005 mg/mL
same,Solubility in pH 2.0 buffer,"Solubility test; 10 mmol/L glycine buffer (pH 2.0), 5° C., overnight",0.004 mg/mL
same,solubility,"Solubility test; 10 mmol/L citrate buffer (pH 3.0), 5° C., overnight, read-out: Solubility in pH 3.0 buffer",5 µg/mL
same,solubility,"Solubility test; 10 mmol/L glycine buffer (pH 2.0), 5° C., overnight, read-out: Solubility in pH 2.0 buffer",4 µg/mL
same,inhibition at 10 µM,"hDAT; 10 μM, CHO-S/hDAT membrane preparation",88%
same,Inhibitory effect on dopamine receptors (in words),hDAT,strong inhibitory effect
same,inhibition at 10 µM,"hSERT; 10 μM, HEK293/hSERT membrane preparation",76%
same,Inhibitory effect on serotonin receptors (in words),hSERT,strong inhibitory effect
"O=C1N[C@]2(CCc3cc(-c4cnn(C5CN(C6COC6)C5)c4)ccc32)C(=O)N1CC(=O)N(Cc1ccc(F)cn1)C1(C(F)(F)F)CC(F)(F)C1 [Example 8, N-[3,3-difluoro-1-(trifluoromethyl)cyclobutyl]-N-[(5-fluoropyridin-2-yl)methyl]-2-[(1′S)-5′-{-[1-(oxetan-3-yl)azetidin-3-yl]-1H-pyrazol-4-yl}-2,5-dioxo-2′,3′-dihydrospiro[imidazolidine-4,1′-inden]-1-yl]acetamide]",IC50,recombinant p300,17.2 nM
"O=C1N[C@]2(C[C@@H](F)c3cc(-c4cnn(C5CN(C6COC6)C5)c4)ccc32)C(=O)N1CC(=O)N(Cc1ccc(F)cn1)C1(C(F)(F)F)CC(F)(F)C1 [Example 9, N-[3,3-difluoro-1-(trifluoromethyl)cyclobutyl]-2-[(1′S,3′R)-3′-fluoro-5′-{1-[1-(oxetan-3-yl)azetidin-3-yl]-1H-pyrazol-4-yl}-2,5-dioxo-2′,3′-dihydrospiro[imidazolidine-4,1′-inden]-1-yl]-N-[(5-fluoropyridin-2-yl)methyl]acetamide]",IC50,recombinant p300,0.6 nM
"CN1CC(N(Cc2ccc(F)cc2)C(=O)CN2C(=O)N[C@]3(CCc4cc(-c5cnn(C)c5)ccc43)C2=O)(C(F)(F)F)C1 [Example 12, N-[(4-fluorophenyl)methyl]-2-[(1′S)-5′-(1-methyl-1H-pyrazol-4-yl)-2,5-dioxo-2′,3′-dihydrospiro[imidazolidine-4,1′-inden]-1-yl]-N-[1-methyl-3-(trifluoromethyl)azetidin-3-yl]acetamide]",BA,[1],30.0%
"CN1CC(N(Cc2ccc(F)cc2)C(=O)CN2C(=O)N[C@]3(C[C@@H](F)c4cc(-c5cnn(C6CCOCC6)c5)ccc43)C2=O)(C(F)(F)F)C1 [Example 19, 2-{(1′S,3′R)-3′-fluoro-5′-[1-(oxan-4-yl)-1H-pyrazol-4-yl]-2,5-dioxo-2′,3′-dihydrospiro[imidazolidine-4,1′-inden]-1-yl}-N-[(4-fluorophenyl)methyl]-N-[1-methyl-3-(trifluoromethyl)azetidin-3-yl]acetamide]",Cell proliferation inhibitory effect on G-401 cells (in words),G-401 cells,strong cell proliferation inhibitory effect
"CN1CC(N(Cc2ccc(F)cn2)C(=O)CN2C(=O)N[C@]3(C[C@@H](F)c4cc(-c5cnn(C6COC6)c5)ccc43)C2=O)(C(F)(F)F)C1 [Example 24, 2-{(1′S,3′R)-3′-fluoro-5′-[1-(oxetan-3-yl)-1H-pyrazol-4-yl]-2,5-dioxo-2′,3′-dihydrospiro[imidazolidine-4,1′-inden]-1-yl}-N-[(5-fluoropyridin-2-yl)methyl]-N-[1-methyl-3-(trifluoromethyl)azetidin-3-yl]acetamide]",Solubility (in words),Solubility test; pH 2.0 and pH 3.0 buffers,high solubility
same,Pharmacokinetics (in words),[1],excellent pharmacokinetics
same,BA,[1],47.0%
same,"Antitumor effect, intravenous administration (in words)",G-401 xenograft,strong antitumor effects
same,Inhibitory effect on dopamine receptors (in words),hDAT,did not show strong inhibitory activity
same,Inhibitory effect on serotonin receptors (in words),hSERT,did not show strong inhibitory activity
"CN1CC(N(Cc2ccc(F)cn2)C(=O)CN2C(=O)N[C@]3(C[C@@H](F)c4cc(-c5cnn(CC6COC6)c5)ccc43)C2=O)(C(F)(F)F)C1 [Example 25, 2-[(1′S,3′R)-3′-fluoro-5′-{1-[(oxetan-3-yl)methyl]-1H-pyrazol-4-yl}-2,5-dioxo-2′,3′-dihydrospiro[imidazolidine-4,1′-inden]-1-yl]-N-[(5-fluoropyridin-2-yl)methyl]-N-[1-methyl-3-(trifluoromethyl)azetidin-3-yl]acetamide]",Inhibitory effect on dopamine receptors (in words),hDAT,did not show strong inhibitory activity
same,Inhibitory effect on serotonin receptors (in words),hSERT,did not show strong inhibitory activity

# Source: patent publication US20250263415A1, “TERTIARY AMIDE DERIVATIVES SUBSTITUTED WITH 4-MEMBERED RING STRUCTURE” (Sumitomo Pharma Co., Ltd., priority 2024, published 2025)
